Test results published in patent US20210045385A1, “PYRIDAZINONE-SUBSTITUTED KETOXIMES AS HERBICIDES” (FMC Corporation, priority 2018, published 2021).

Key:
Format in all cases: in vivo
[1] = test system: rice (Oryza sativa); assay: Test D flooded paddy test, visual plant response rating; conditions: 250 g ai/ha, scale 0 to 100 (0 no effect, 100 complete control), 13 to 15 d
In short: (§1)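 Plants were grown to the 2-leaf stage, pots flooded to 3 cm above soil, and compound applied directly into the paddy water, with the depth held throughout. After 13 to 15 d in a greenhouse, response was rated visually against untreated controls on a 0–100 scale (0 no effect, 100 complete control).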

[2] = test system: sedge umbrella (small-flower umbrella sedge, Cyperus difformis); assay: as above; conditions: 250 g ai/ha, scale 0 to 100 (0 no effect, 100 complete control), 13 to 15 d
In short: as §1

[3] = test system: barnyardgrass (Echinochloa crus-galli); assay: as above; conditions: 250 g ai/ha, scale 0 to 100 (0 no effect, 100 complete control), 13 to 15 d
In short: as §1

[4] = test system: duck salad (Heteranthera limosa); assay: as above; conditions: 250 g ai/ha, scale 0 to 100 (0 no effect, 100 complete control), 13 to 15 d
In short: as §1

[5] = test system: kochia (Bassia scoparia); assay: Test C preemergence, visual plant response rating
In short: (§2)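 Compounds in a non-phytotoxic solvent with surfactant were applied as a directed soil spray preemergence or to 2–10 cm, one- to two-leaf plants postemergence, in loam–sand soil. After about 10 d in a greenhouse, injury was visually rated against untreated controls on a 0–100 scale (100 = complete control).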

[6] = test system: ragweed (common ragweed, Ambrosia artemisiifolia); assay: Test C preemergence, visual plant response rating
In short: as §2

[7] = test system: barnyardgrass (Echinochloa crus-galli); assay: Test C preemergence, visual plant response rating
In short: as §2

[8] = test system: pigweed (Amaranthus retroflexus); assay: Test C preemergence, visual plant response rating
In short: as §2

[9] = test system: Italian ryegrass (Lolium mutiflorum); assay: Test C preemergence, visual plant response rating
In short: as §2

[10] = test system: foxtail, giant (giant foxtail, Setaria faberi); assay: Test C preemergence, visual plant response rating
In short: as §2

[11] = test system: corn (Zea mays); assay: Test C postemergence, visual plant response rating
In short: as §2

[12] = test system: kochia (Bassia scoparia); assay: Test C postemergence, visual plant response rating
In short: as §2

[13] = test system: ragweed (common ragweed, Ambrosia artemisiifolia); assay: Test C postemergence, visual plant response rating
In short: as §2

[14] = test system: barnyardgrass (Echinochloa crus-galli); assay: Test C postemergence, visual plant response rating
In short: as §2

[15] = test system: pigweed (Amaranthus retroflexus); assay: Test C postemergence, visual plant response rating
In short: as §2

[16] = test system: wheat (Triticum aestivum); assay: Test C postemergence, visual plant response rating
In short: as §2

[17] = test system: blackgrass (Alopecurus myosuroides); assay: Test C postemergence, visual plant response rating
In short: as §2

[18] = test system: Italian ryegrass (Lolium mutiflorum); assay: Test C postemergence, visual plant response rating
In short: as §2

[19] = test system: foxtail, giant (giant foxtail, Setaria faberi); assay: Test C postemergence, visual plant response rating
In short: as §2

[20] = test system: galium (catchweed bedstraw, Galium aparine); assay: Test C postemergence, visual plant response rating
In short: as §2

[21] = Test C, 31 g ai/ha, 0 is no effect, 100 is complete control
[22] = Test C, 125 g ai/ha, 0 is no effect, 100 is complete control
[23] = Test C, postemergence, 125 g ai/ha

Structure (SMILES)	Plant response rating, Rice (Flood) [1]	Plant response rating, Sedge, Umbrella (Flood) [2]	Plant response rating, Barnyardgrass (Flood) [3]	Plant response rating, Ducksalad (Flood) [4]	Kochia plant response rating (0 to 100 scale) [5, 21]	Ragweed plant response rating (0 to 100 scale) [6, 21]	Barnyardgrass plant response rating (0 to 100 scale) [7, 21]	Pigweed plant response rating (0 to 100 scale) [8, 21]	Ryegrass, Italian plant response rating (0 to 100 scale) [9, 21]	Foxtail, Giant plant response rating (0 to 100 scale) [10, 21]	Corn plant response rating (0 to 100 scale) ([11]; Postemergence, 31 g ai/ha)	Corn plant response rating (0 to 100 scale) [11, 23]	Kochia plant response rating (0 to 100 scale) ([12]; Postemergence, 31 g ai/ha)	Kochia plant response rating (0 to 100 scale) [12, 23]	Ragweed plant response rating (0 to 100 scale) ([13]; Postemergence, 31 g ai/ha)	Ragweed plant response rating (0 to 100 scale) [13, 23]	Barnyardgrass plant response rating (0 to 100 scale) ([14]; Postemergence, 31 g ai/ha)	Barnyardgrass plant response rating (0 to 100 scale) [14, 23]	Pigweed plant response rating (0 to 100 scale) ([15]; Postemergence, 31 g ai/ha)	Pigweed plant response rating (0 to 100 scale) [15, 23]	also measured
CO/N=C(\c1ccc(F)c(Cl)c1)c1c(O)c(C)nn(C)c1=O [Compound 219]	0	0	0	0	0	0	0	0	0	0	0	0	10	50	0	10	20	30	20	40	Kochia plant response rating (0 to 100 scale) [5, 22]: 0; Ragweed plant response rating (0 to 100 scale) [6, 22]: 0; Barnyardgrass plant response rating (0 to 100 scale) [7, 22]: 0; Pigweed plant response rating (0 to 100 scale) [8, 22]: 10; Ryegrass, Italian plant response rating (0 to 100 scale) [9, 22]: 0; Foxtail, Giant plant response rating (0 to 100 scale) [10, 22]: 0; Wheat plant response rating (0 to 100 scale) ([16]; Postemergence, 31 g ai/ha): 0; Wheat plant response rating (0 to 100 scale) [16, 23]: 0; Blackgrass plant response rating (0 to 100 scale) ([17]; Postemergence, 31 g ai/ha): 0; Blackgrass plant response rating (0 to 100 scale) [17, 23]: 0; Ryegrass, Italian plant response rating (0 to 100 scale) ([18]; Postemergence, 31 g ai/ha): 0; Ryegrass, Italian plant response rating (0 to 100 scale) [18, 23]: 40; Foxtail, Giant plant response rating (0 to 100 scale) ([19]; Postemergence, 31 g ai/ha): 0; Foxtail, Giant plant response rating (0 to 100 scale) [19, 23]: 0; Galium plant response rating (0 to 100 scale) ([20]; Postemergence, 31 g ai/ha): 50; Galium plant response rating (0 to 100 scale) [20, 23]: 60
CO/N=C(/c1cc(C)cc(Cl)c1)c1c(O)c(C)nn(C)c1=O [Compound 173]	0	0	0	0	60	30	60	30	30	40	0	20	60	90	80	100	50	80	70	90	Kochia plant response rating (0 to 100 scale) ([5]; 125 g ai/ha): 80; Ragweed plant response rating (0 to 100 scale) ([6]; 125 g ai/ha): 90; Barnyardgrass plant response rating (0 to 100 scale) ([7]; 125 g ai/ha): 50; Pigweed plant response rating (0 to 100 scale) ([8]; 125 g ai/ha): 30; Ryegrass, Italian plant response rating (0 to 100 scale) ([9]; 125 g ai/ha): 100; Foxtail, Giant plant response rating (0 to 100 scale) ([10]; 125 g ai/ha): 90; Wheat plant response rating (0 to 100 scale) ([16]; Postemergence, 31 g ai/ha): 0; Wheat plant response rating (0 to 100 scale) [16, 23]: 0; Blackgrass plant response rating (0 to 100 scale) ([17]; Postemergence, 31 g ai/ha): 20; Blackgrass plant response rating (0 to 100 scale) [17, 23]: 40; Ryegrass, Italian plant response rating (0 to 100 scale) ([18]; Postemergence, 31 g ai/ha): 80; Ryegrass, Italian plant response rating (0 to 100 scale) [18, 23]: 100; Foxtail, Giant plant response rating (0 to 100 scale) ([19]; Postemergence, 31 g ai/ha): 30; Foxtail, Giant plant response rating (0 to 100 scale) [19, 23]: 80; Galium plant response rating (0 to 100 scale) ([20]; Postemergence, 31 g ai/ha): 90; Galium plant response rating (0 to 100 scale) [20, 23]: 100
